Test results taken from US7669997B2, “Ink-jet textile printing method” (Konica Minolta Holdings, Inc., priority 2004, dated 2010).

Assay: pKa (acid dissociation constant) of dispersing agents and acids
Type: physicochemical
Conditions: acid of pretreatment solution
Excerpt: The pKa value, as described in the present invention, is also called an acid dissociation constant, which is detailed, for example, in Buichi Sakaguchi and Keihei Ueno, Kinzoku Chelates [III] (Metal Chelates [III]), Nanko Do, which describes pKa values of acidic dissociating groups. Further, it is possible to determine the pKa of compounds, which are not described in the above reference, employing conventional methods. For example, it is possible to determine the pKa employing the method described, for example, in Jikken Kagaku Koza 5 Netsuteki Sokutei oyobi Heiko (Experimental Chemistry Lecture 5 Thermal Measurements and Equilibrium) page 460, edited by Nihon Kagaku Kai, Maruzen Co., Ltd.

pKa (first listed pKa value): < 2 | pKa (second listed pKa value): 5.8
SMILES: O=C(O)/C=C\C(=O)O [maleic acid]
